Legend:
[1] = system: laser-induced hypertensive monkeys; assay: Intraocular pressure (IOP) in laser-induced hypertensive monkeys; assay type: in vivo, monkey; conditions: Primates, topical, 0.1%, one single day dose, read-out: maximum IOP decrease from baseline (percent)
Experimental: (§1) (Z)-7-[(1R,2S,3R,5R)-5-Chloro-2-(3,5-dichloro-phenoxymethyl)-3-hydroxy-cyclopentyl]-hept-5-enoic acid (15b) was tested at multiple concentrations in normotensive dogs, dosing once daily for 5 days. At 0.05%, the maximum IOP decrease from baseline was 4.3 mmHg (30%) at 6 h; the maximum OSH score was 0.6 at 6 h. […] This compound was also tested in laser-induced hypertensive monkeys, using one single day dose. At 0.1%, the maximum IOP decrease from baseline was 6 mmHg (19%) at 6 h.
(§2) (Z)-7-[(1R,2S,3R,5R)-5-Chloro-2-(3,5-dichloro-phenoxymethyl)-3-hydroxy-cyclopentyl]-hept-5-enoic acid isopropyl ester (42b) was tested in normotensive dogs at 0.05%, dosing once daily for 5 days. The maximum intraocular pressure (IOP) decrease from baseline was 3 mmHg (19%) at 6 h; the maximum ocular surface hyperemia (OSH) score was 0.6 at 74 h. This compound was also tested in laser-induced hypertensive monkeys, using one single day dose. At 0.01%, the maximum IOP decrease from baseline was 6 mmHg (16%) at 6 h.

normotensive dogs [2] = assay: Intraocular pressure (IOP) in normotensive dogs; assay type: in vivo, dog; conditions: Canis lupus familiaris, topical, 120 h, dosing once daily for 5 days, read-out: maximum IOP decrease from baseline (percent)
Experimental: as §1, §2

normotensive dogs [3] = assay: Ocular surface hyperemia (OSH) in normotensive dogs; assay type: in vivo, dog; design: maximum OSH score: scale not given here; conditions: dosing once daily for 5 days
Experimental: as §1, §2

Compound: O=C(O)CCC/C=C\C[C@@H]1[C@@H](COc2cc(Cl)cc(Cl)c2)[C@H](O)C[C@H]1Cl [Example 12, (Z)-7-[(1R,2S,3R,5R)-5-Chloro-2-(3,5-dichloro-phenoxymethyl)-3-hydroxy-cyclopentyl]-hept-5-enoic acid]
- inhibition in vivo at 0.1 % [1]: 19%
- inhibition in vivo at 0.05 % (normotensive dogs [2]; 0.05%): 30%
- inhibition in vivo at 0.1 % (normotensive dogs [2]; 0.1%): 34%
- maximum OSH score (normotensive dogs [3]; 0.05%): 0.6
- time of maximum OSH score (normotensive dogs [3]; 0.05%): 6 h
- maximum OSH score (normotensive dogs [3]; 0.1%): 1.3
- time of maximum OSH score (normotensive dogs [3]; 0.1%): 6 h

Source: patent US7635716B2, “Substituted cyclopentanes or cyclopentanones as therapeutic agents” (Allergan, Inc., priority 2005, dated 2009)
